The values that follow come from US20240294548A1, “TRICYCLIC SULTAMS AND SULFAMIDES AS ANTITUMOR AGENTS” (PELOTON THERAPEUTICS INC., priority 2021, published 2024).

Like-named read-outs stand apart in the source and are kept apart here.

In assay [1] the target is T1, DCAF15 (DDA1-DDB1ΔB-DCAF15Δpro) (Homo sapiens, UniProt Q66K64, DEL276-383).
T1 construct: made in house; host or cells: Sf9 (Bac-to-Bac baculovirus)
In words: DCAF15 displacement assay (displacement FRET, probe PT7795). It counts as binding. An excerpt:
(§1) Proteins used for the assays were as follows: Human DDA1 (UniProt:Q9BW61), DDB1 (UniPro: Q16531), and DCAF15 (UniProt: Q66K64) coding sequences were cloned into pFastBac1 vectors and were co-expressed in Sf9 cells using Bac-to-Bac baculovirus expression system (Thermo Fisher Scientific). The expression construct for DCAF15 includes a N-terminal His6-tag to facilitate the purification.
DCAF15 Displacement Assay (Displacement FRET KD)
Synthesis of the probe PT7795 is described in the article.
Binding of PT7795 to DDA1-DDB1AB-DCAF15Δpro was measured by the FRET signal between europium-labeled anti-His antibody (AD0205, Perkin Elmer) that is associated with His-tagged DCAF15 and ALX647 moiety in PT7795. […] After equilibrating for 2-3 hours at 4° C., the plate was removed from the incubator, briefly spun, then read on a Spark 10 (Tecan) at the excitation/emission wavelength of 340 nm/615 nm and 340 nm/665 nm.
Binding of compounds in this disclosure to DCAF15 was measured in a competition by the displacement of PT7795. The concentration of PT7795 was kept at 300 nM while the concentration of a compound was varied from 0.01 to 100 μM. The incubation time was increased to 18 hours for enhanced signal to noise level.
F=Fmin+(Fmax−Fmin)/(1+10^(logIC50−log[Compound])^n) (Equation 2)
The Kds can then be calculated from IC50s using Equation 3 (Cheng-Prusoff equation).

Assay [2] deals with T2, DCAF15 RBM39 ternary complex (Homo sapiens, UniProt Q14498+Q66K64, DEL276-383).
T2 construct: Amino acids 150 to 331 of RBM39 were cloned into pGEX4T3; GST (from the pGEX4T3 vector, own knowledge) followed by a TEV cleavage site (N); made in house; host or cells: Sf9 baculovirus (DDB1ΔB/DCAF15); E. coli (RBM39 R1R2)
Description: DCAF15 RBM39 complex formation assay (FRET). It counts as biochemical.
Source text: as §1
DCAF15 RBM39 Complex Formation Assay
LANCE Eu-W1024 Anti-6×His and SureLight Allophycocyanin-anti-FLAG antibodies were purchased from Perkin Elmer. Human DDB1DB and His-tagged DCAF15 were co-expressed in baculovirus/sf9 system. […] The His-tagged DCAF15 contains six histidine residues directly preceding the DCAF15 sequence without any linker. An RBM39 fragment containing RRM1 and RRM2 was expressed in E. coli.
A compound of the present disclosure in DMSO (2 μL) was transferred to a 384-well assay plate. Compound was added in 14 points, 3-fold serial dilution (1 μM to 0.6 pico molar) in DMSO. […] FRET assay buffer (25 mM HEPES, pH 7.5, 100 mM NaCl, […], 0.5 mM TCEP, 0.005% Tween-20, 0.2 nM Eu-W1024 Anti-6×His, 50 nM SureLight Allophycocyanin-anti-FLAG, 20 nM DDB1DB/DCAF15, 50 nM RBM39 R1R2) was added and the resulting solution was incubated overnight at 4° C. […] Low signal controls containing no compound and high signal controls containing 10 mM indisulam were measured for each plate.
EC50 values were calculated using Dotmatics template equation for 4-parameter fit.
Results are expressed as % formation using the following equation: […]

Assay [3] deals with HCT116 human colorectal carcinoma cells. Description: CellTiter-Glo assay (cell viability). Type of assay: cell-based. The note with it: HCT-116, 72 h, read-out: CTG IC50. How it is done: HCT116 human colorectal carcinoma cells were used in these experiments. HCT116 cells were obtained from ATCC. CellTiter-Glo® Luminescent Cell Viability Assay Reagent was obtained from Promega.
About 3,000 cells were seeded into 96-well plate with 100 μL of media (DMEM supplemented with 10% FBS, 100 units penicillin, and […] streptomycin per mL) the day before the experiment. For compound treatment, the master plate was prepared as follows: 100× compound stocks were prepared in a 96-well plate by 1 to 3 serial dilutions of 0.5 mM DMSO stocks. Each master plate contained serial dilution of 8 compounds, including the control compound E7820. […] of 100× compound stock was added to each well of the assay plate to give final concentrations of […]. Each concentration was tested in triplicate. After 3 days, cell viability was determined using CellTiter-Glo Luminescent Cell Viability Assay Reagent following the manufacturer's recommended protocol. Briefly, […] of CellTiter-Glo reagent was added to each well of the assay plate and the contents were mixed for 3 minutes at 600 rpm on a shaker (Thermomixer R). The plate was immediately placed in a plate reader (Synergy 2) and the luminescence signal (0.5 second per well integration time) was determined. IC50 values were calculated using Dotmatics software.
(Cellular ATP, detected with luciferase, serves as a proxy for viable cell number.)

[4] abbreviates: displacement of PT7795 (300 nM), compound 0.01 to 100 μM, 18 hours incubation, read-out: DCAF15 displacement IC50.
[5] abbreviates: FRET ratio, 20 nM DDB1DB/DCAF15, 50 nM RBM39 R1R2, overnight at 4° C., read-out: DCAF15 RBM39 ternary complex EC50.
The mark [6] stands for this setting: HCT116 cells, 3 days, CellTiter-Glo luminescence.

T2 sequence (Q66K64 with tags, fused parts or gaps DEL276-383): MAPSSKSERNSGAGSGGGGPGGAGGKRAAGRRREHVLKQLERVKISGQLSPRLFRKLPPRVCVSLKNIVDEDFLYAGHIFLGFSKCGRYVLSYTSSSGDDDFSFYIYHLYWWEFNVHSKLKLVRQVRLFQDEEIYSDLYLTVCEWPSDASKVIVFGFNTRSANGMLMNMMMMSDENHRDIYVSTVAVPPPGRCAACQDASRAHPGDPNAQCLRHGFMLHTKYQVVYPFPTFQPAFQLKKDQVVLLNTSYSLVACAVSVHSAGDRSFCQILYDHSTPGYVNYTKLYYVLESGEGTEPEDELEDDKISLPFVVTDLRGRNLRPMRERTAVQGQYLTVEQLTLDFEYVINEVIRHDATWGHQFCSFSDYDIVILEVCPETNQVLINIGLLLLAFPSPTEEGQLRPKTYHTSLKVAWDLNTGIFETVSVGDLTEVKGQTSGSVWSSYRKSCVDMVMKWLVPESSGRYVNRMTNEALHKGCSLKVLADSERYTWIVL
T2 sequence (Q14498 150-331, stated change not applied): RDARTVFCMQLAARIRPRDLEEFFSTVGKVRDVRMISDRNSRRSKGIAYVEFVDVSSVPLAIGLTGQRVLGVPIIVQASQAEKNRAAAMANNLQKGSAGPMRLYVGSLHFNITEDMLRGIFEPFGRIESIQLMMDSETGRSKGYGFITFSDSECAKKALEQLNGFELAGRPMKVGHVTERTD

As a reminder, the IC50 is the concentration at which inhibition is half-maximal. For orientation: EC50 means the concentration at which the effect is half-maximal. As to `O=S1(=O)Nc2c(cc(Cl)c3c(Cl)c[nH]c23)CN1Cc1ccnnc1` [Compound 67, 6,7-dichloro-3-(pyridazin-4-ylmethyl)-1,3,4,9-tetrahydro-[1,2,6] thiadiazino[4,3-g]indole 2,2-dioxide], the IC50 in assay [1] (setting [4]) amounted to 452 nM; in assay [3] (setting [6]), 320 nM. Moreover, the EC50 in assay [2] (setting [5]) stood at 2 nM.

On to `Cc1nnc(CN2Cc3cc(Cl)c4c(Cl)c[nH]c4c3NS2(=O)=O)o1` [Compound 36, 6,7-dichloro-3-((5-methyl-1,3,4-oxadiazol-2-yl)methyl)-1,3,4,9-tetrahydro-[1,2,6] thiadiazino[4,3-g]indole 2,2-dioxide], for which the figures for the IC50 in assay [1] (setting [4]) and in assay [3] (setting [6]) were 963 nM and 236 nM, respectively. Moreover, the EC50 in assay [2] (setting [5]) came out at 2.1 nM.

Regarding `COCCN1Cc2cc(C)c3c(Cl)c[nH]c3c2NS1(=O)=O` [Compound 87, 7-chloro-3-(2-methoxyethyl)-6-methyl-1,3,4,9-tetrahydro-[1,2,6] thiadiazino[4,3-g]indole 2,2-dioxide], the IC50 in assay [1] (setting [4]) turned out to be 6220 nM; in assay [3] (setting [6]), 258 nM. Further, the EC50 in assay [2] (setting [5]) came to 1.8 nM.

As to `N#Cc1cccc(CN2Cc3cc(Cl)c4c(Cl)c[nH]c4c3NS2(=O)=O)c1` [Compound 51, 3-((6,7-dichloro-2,2-dioxido-4,9-dihydro-[1,2,6]thiadiazino[4,3-g]indol-3(1H)-yl)methyl) benzonitrile], the figures for the IC50 in assay [1] (setting [4]) and in assay [3] (setting [6]) were 4410 nM and 283 nM, respectively. In assay [2] (setting [5]), the EC50 stood at 1.5 nM.

With `COCCCN1Cc2cc(Cl)c3c(Cl)c[nH]c3c2NS1(=O)=O` [Compound 68, 6,7-dichloro-3-(3-methoxypropyl)-1,3,4,9-tetrahydro-[1,2,6] thiadiazino[4,3-g]indole 2,2-dioxide], the IC50 turned out to be 630 nM in assay [1] (setting [4]) and 205 nM in assay [3] (setting [6]). In assay [2] (setting [5]), the EC50 was 2.3 nM.

`CN1Cc2cc(Cl)c3c(Cl)c[nH]c3c2NS1(=O)=O` [Compound 15, 6,7-dichloro-3-methyl-1,3,4,9-tetrahydro-[1,2,6]thiadiazino [4,3-g]indole 2,2-dioxide]: the 50% inhibitory concentration (IC50) was 14400 nM in assay [1] (setting [4]) and 726 nM in assay [3] (setting [6]). The EC50 in assay [2] (setting [5]) is 7.7 nM.

Take `O=S1(=O)Nc2c(cc(Cl)c3c(Cl)c[nH]c23)CN1Cc1cnccn1` [Compound 59, 6,7-dichloro-3-(pyrazin-2-ylmethyl)-1,3,4,9-tetrahydro-[1,2,6] thiadiazino[4,3-g]indole 2,2-dioxide]: the IC50 in assay [1] (setting [4]) worked out at 325 nM; in assay [3] (setting [6]), 120 nM. In assay [2] (setting [5]), the EC50 was 2 nM.

Take `COCC[C@H]1Cc2cc(Cl)c3c(Cl)c[nH]c3c2NS1(=O)=O` (single isomer, unassigned) [Compound 29]: the IC50 in assay [1] (setting [4]) was 50500 nM; in assay [3] (setting [6]), 555 nM. In addition, the EC50 in assay [2] (setting [5]) came out at 1.9 nM.

With `Cc1ccc(CN2Cc3cc(Cl)c4c(Cl)c[nH]c4c3NS2(=O)=O)cn1` [Compound 48, 6,7-dichloro-3-((6-methylpyridin-3-yl)methyl)-1,3,4,9-tetrahydro-[1,2,6] thiadiazino[4,3-g]indole 2,2-dioxide], the IC50 stood at 623 nM in assay [1] (setting [4]) and 259 nM in assay [3] (setting [6]). The EC50 in assay [2] (setting [5]) is 0.6 nM.

In the case of `O=S1(=O)Nc2c(cc(Cl)c3c(Cl)c[nH]c23)CN1CC1CC(F)(F)C1` [Compound 85, 6,7-dichloro-3-((3,3-difluorocyclobutyl)methyl)-1,3,4,9-tetrahydro-[1,2,6] thiadiazino[4,3-g]indole 2,2-dioxide], the IC50 in assay [1] (setting [4]) came out at 8380 nM; in assay [3] (setting [6]), 302 nM. Moreover, in assay [2] (setting [5]), the half-maximal effective concentration (EC50) was determined as 2 nM.

With `CNCCN1Cc2cc(Cl)c3c(Cl)c[nH]c3c2NS1(=O)=O` [Compound 28, 6,7-dichloro-3-(2-(methylamino)ethyl)-1,3,4,9-tetrahydro-[1,2,6] thiadiazino[4,3-g]indole 2,2-dioxide], the IC50 in assay [1] (setting [4]) stood at 28000 nM; in assay [3] (setting [6]), 501 nM. Moreover, in assay [2] (setting [5]), the 50% effective concentration (EC50) came to 1.4 nM.

In the case of `O=S1(=O)Nc2c(cc(Cl)c3c(Cl)c[nH]c23)CN1Cc1cccnn1` [Compound 42, 6,7-dichloro-3-(pyridazin-3-ylmethyl)-1,3,4,9-tetrahydro-[1,2,6]thiadiazino[4,3-g]indole 2,2-dioxide], the values for the IC50 in assay [1] (setting [4]) and in assay [3] (setting [6]) were 588 nM and 298 nM, respectively. For the same compound, in assay [2] (setting [5]), the EC50 was 0.7 nM.

With `O=S1(=O)Nc2c(cc(Cl)c3c(Cl)c[nH]c23)CN1Cc1ccncc1` [Compound 20, 6,7-dichloro-3-(pyridin-4-ylmethyl)-1,3,4,9-tetrahydro-[1,2,6] thiadiazino[4,3-g] indole 2,2-dioxide], the figures for the IC50 in assay [1] (setting [4]) and in assay [3] (setting [6]) were 1070 nM and 155 nM, respectively. For the same compound, the EC50 in assay [2] (setting [5]) was determined as 0.7 nM.

For `Cc1ccncc1CN1Cc2cc(Cl)c3c(Cl)c[nH]c3c2NS1(=O)=O` [Compound 55, 6,7-dichloro-3-((4-methylpyridin-3-yl)methyl)-1,3,4,9-tetrahydro-[1,2,6] thiadiazino[4,3-g]indole 2,2-dioxide], the IC50 in assay [1] (setting [4]) was 174 nM; in assay [3] (setting [6]) it was 108 nM. In addition, in assay [2] (setting [5]), the half-maximal effective concentration (EC50) was determined as 1.7 nM.

Regarding `O=c1cc(CN2Cc3cc(Cl)c4c(Cl)c[nH]c4c3NS2(=O)=O)cc[nH]1` [Compound 60, 4-((6,7-dichloro-2,2-dioxido-4,9-dihydro-[1,2,6]thiadiazino[4,3-g]indol-3(1H)-yl)methyl)pyridin-2(1H)-one], the IC50 in assay [1] (setting [4]) stood at 162 nM; in assay [3] (setting [6]), 2840 nM. In addition, the EC50 in assay [2] (setting [5]) was 2.4 nM.

In the case of `O=S1(=O)Nc2c(cc(Cl)c3c(Cl)c[nH]c23)CC1Cc1ccccc1` (stereo not drawn) [Compound 16, 3-benzyl-6,7-dichloro-1,3,4,9-tetrahydro-[1,2] thiazino[4,3-g]indole 2,2-dioxide], the IC50 in assay [1] (setting [4]) was 1210 nM; in assay [3] (setting [6]), 259 nM. The EC50 in assay [2] (setting [5]) was 1 nM.

For the compound `O=S1(=O)Nc2c(cc(Cl)c3c(Cl)c[nH]c23)CN1CCN1CCOCC1` [Compound 71, 6,7-dichloro-3-(2-morpholinoethyl)-1,3,4,9-tetrahydro-[1,2,6] thiadiazino[4,3-g]indole 2,2-dioxide], the IC50 is 952 nM in assay [1] and 353 nM in assay [3]. This compound also showed an EC50 in assay [2] of 2.1 nM.

Take `O=S1(=O)Nc2c(cc(Cl)c3c(Cl)c[nH]c23)CN1Cc1ccccc1F` [Compound 70, 6,7-dichloro-3-(2-fluorobenzyl)-1,3,4,9-tetrahydro-[1,2,6] thiadiazino[4,3-g]indole 2,2-dioxide]: the IC50 in assay [1] (setting [4]) came out at 1950 nM; in assay [3] (setting [6]) it was 833 nM. The EC50 in assay [2] (setting [5]) was determined as 3.3 nM.
